These results are taken from patent publication US20240075123A1, “TREATMENT OF CANCERS AND INFECTIOUS DISEASES WITH KILLED INTACT BACTERIA” (priority 2022, published 2024).

For series [1], the system named is Ramos NHL xenograft. Description: s.c. human Ramos NHL xenograft in CB17/SCID mice. On the set-up: species or system mouse. The settings on record: in vivo. The method, then:
This was tested with the human Ramos NHL xenograft model in SCID mice, which lack B and T cells.
Maximum transient weight loss for all non-indomethacin groups was generally in the 5% to 10% range. […] However, cure of at least some percentage of the mice is possible with the 3-way combination as a repeat produced 2/4 durable regressions in mice.
The 5 tumor-regressed mice were re-challenged with fresh Ramos tumor cells (opposite flank from first challenge) on Day 74. Only 2/5 tumors grew out, compared to 5/5 with naïve mice challenged with the same fresh tumor cells (FIG. 26). […] This has been reported previously with a small number of other agents, and is considered to be very difficult to achieve. Tumor regression with immunological memory via the innate immune system alone is very rare in preclinical models, but consistent with a multiple TLR agonist mechanism.
(In general: Xenograft models place foreign cells or tissue in a host animal.)

Series [2] concerns human PBMCs. Description: Cytokine secretion by human PBMCs in vitro. In kind it is cell-based. Particulars: 48 hr, full titration peak/mean of triplicates; Study AB64785. As for the experimental part:
TLR ligands such as E. coli LPS, ds E. coli DNA, E. coli peptidoglycan (PGN), Flagellin, R848, Polyinosinic-polycytidylic acid (poly I:C), and CpG oligonucleotide (ODN) were also assessed in these studies. Initial experiments were carried out with incubation for 24, 48 and 72 hours, as well as with and without immune cell activation with anti-CD3. […] In addition, maximal induction of secretion of most cytokines and chemokines occurred after 48 hours. […] Essentially all cytokines and chemokines participate in activation of innate and/or adaptive (including anti-tumor and anti-viral) immune pathways, but can also induce significant toxicity if expressed in the wrong place, at the wrong time, for too long, or at an inappropriately high level.

For series [3], the system named is healthy human volunteers. The settings on record: purified LPS, over 1,000 healthy human volunteers; cited from earlier work.
For series [4], the system named is Pan02 pancreatic carcinoma. Kind of series: Intrasplenic Pan02 pancreatic carcinoma, first experiment. It counts as in vivo. Particulars: Decoy 5×10^7 and 2×10^8 per mouse; gemcitabine 50 mg/kg i.p. The source says:
Pancreatic tumor cells were surgically implanted (injected) into the spleen of C57BL/6 female mice on Day 0. […] A group of untreated animals was used as the control. All untreated animals developed large tumors in the spleen, liver and pancreas, requiring termination around Day 30.

For series [5], the system named is Pan02 pancreatic carcinoma. Kind of series: Intrasplenic Pan02 pancreatic carcinoma, second experiment. Particulars: single agents. It counts as in vivo, mouse. The source says:
A group of animals administered Decoy vehicle was used as the control.

The subject of series [6] is H22 hepatocellular carcinoma. The settings on record: mouse, in vivo. As for the experimental part:
Indomethacin was tested at 10 μg/mL in drinking water, p.o. ad libitum daily for either 4 or 7 weeks. […] Treatment was started when the average tumor size was 123 mm^3.

In series [7] the test system is hepatitis B virus (HBV). Description: AAV-HBV mouse model of chronic HBV infection, first study. It counts as in vivo. The settings on record: for HBV replication (measured in blood): 5 weeks of dosing. The method, then: (§1) The anti-hepatitis B virus (HBV) efficacy of Decoy was evaluated in two studies. A standard pre-clinical model was used in which the human HBV genome is inserted in an adeno-associated virus (AAV). This hybrid construct is able to infect mouse hepatocytes, producing a chronic HBV-like infection with many of the hallmarks of human HBV infection, including high levels of HBV replication in liver and blood and production of HBe and HBs antigen (HBeAg and HBsAg). AAV-HBV virus is administered to mice and then blood titers of HBV DNA are monitored. Significant and relatively stable blood levels of HBV appear within 28-31 days, at which point treatment is initiated. Indomethacin was administered with Decoy in many groups in the first study, but not in the second study.
In the first study, Decoy (two different doses) was tested in combination with indomethacin and also in combination with the clinical standard of care, Entecavir (ETV). ETV and indomethacin were also tested as single agents (first study). […] In addition, ETV and mIFN-alpha were tested as single agents and in combination with Decoy (one dose).
Decoy-induced body weight loss was mild, transient (6% for […] in first week of treatment) and tapered off after the first week of treatment (tolerance phenomenon) (FIG. 28).

Series [8] concerns hepatitis B virus (HBV). Kind of series: AAV-HBV mouse model of chronic HBV infection, second study. It counts as in vivo. As for the experimental part: as §1
A group of untreated animals was included in the study. All treatment was well tolerated in AAV-HB V-infected mice.
No inhibition of other infection hallmarks was observed by mIFN-alpha.

Series [9] relates to H22 hepatocellular carcinoma. Kind of series: s.c. H22 hepatocellular carcinoma, first study (194 mm^3). Particulars: single agents; Decoy QD×2 weekly 6 weeks. In kind it is in vivo.
Description: Treatment was initiated when the average tumor size was 194 mm^3. […] Indomethacin was administered at 10 μg/mL, p.o., ad libitum daily in drinking water×6 weeks (alone and in combinations) and anti-PD-1 was administered at 10 mg/kg, i.p., BIW×2 weeks (alone and in combinations). A group of animals that received no treatment was used as the control in the study.
Series [10] deals with H22 hepatocellular carcinoma. Kind of series: s.c. H22 hepatocellular carcinoma, second study (E0776-U1802). It counts as in vivo. The method, then: Indomethacin was tested at 10 μg/mL in drinking water, p.o. ad libitum daily for either 2 or 6 weeks. Anti-PD-1 was tested at 10 mg/kg, i.p. 2× per week for 2 weeks. Dosing was started when the average tumor size was 184 mm^3. A group of untreated animals was used as the control.

Series [11] concerns H22 tumors. Description: s.c. H22 HCC, plasma cytokine/chemokine induction and one-week treatment. In kind it is in vivo, mouse. As for the experimental part: Female BALB/c mice with ˜200 mm^3 H22 tumors were randomized on Day-0 into 8 groups, each containing 3 sub-groups. All of the possible treatment approaches or combinations, including no treatment, were carried out. Mice from each of two subgroups from each group (5 mice per sub-group) were sacrificed 6 and 24 hours after no treatment, single, 2-way, or 3-way combination treatment. In the case of 2way and 3-way combination treatment, mice were sacrificed 6 and 24 hours after the first treatment instance of the second or third component of the combination. Plasma was prepared from each mouse and 32-plex ELISA-based cytokine/chemokine analysis was carried out. A third sub-group from each group (6 mice each) was treated for one week, with tumor volumes measured at randomization, once during the week and at the end of one week of treatment. Mice were sacrificed, then tumors were harvested and RNA was isolated. The 48 RNA samples were analyzed for expression of 770 genes involved in immune response pathways, using NanoString technology.
Indomethacin induced expression of only 2/32 cytokines/chemokines, and only at 6 hours after initiation of treatment. […] There was no increase in weight loss in any of the combination groups, relative to single agent treatment. […]

The subject of series [12] is HIV-1. Description: Chronic HIV humanized hu-mouse model. In kind it is in vivo. The settings on record: 5 weeks of treatment.
Series [13] relates to CT26 tumors. Kind of series: s.c. established CT26 tumors, Decoy with LDC. In kind it is in vivo, mouse. The settings on record: Decoy alone 6.0×10^8; LDC 20 mg/kg i.p.; combination 3×10^8 Decoy + LDC. The source says:
LDC alone produced a 57% ILS, which was statistically significant.

Series [14] has as its system CT26.WT colorectal carcinoma. Kind of series: s.c. CT26.WT, Decoy (DB104) with cyclophosphamide (CTX). It counts as in vivo, mouse. Particulars: vs untreated mice; Decoy single agent all doses (p<0.05); CTX both schedules. As for the experimental part: Mouse CT26.WT colorectal carcinoma cells were implanted (injected) into the right flank of BALB/c mice. Animals were randomized and treatments were initiated (Starting Day=SD) with a mean group tumor weight of 75 to 79 mg. […] A group of animals that received no treatment was used as the control.

Series [15] has as its system A20 non-Hodgkin's lymphoma. Description: s.c. A20 lymphoma, Decoy dose and regimen with LDC. Particulars: LDC alone. In kind it is in vivo, mouse.
Description: A group of untreated animals was used as the control. LDC alone was also tested. Treatment was initiated on Day 13 when the average tumor size was 158 mm^3.
Series [16] relates to A20 non-Hodgkin's lymphoma. Kind of series: s.c. A20 lymphoma, repeat and immune cell depletion. In kind it is in vivo, mouse. Particulars: 212 mm^3 tumors; two weeks of treatment. The method, then:
A group of untreated animals was used as the control. Treatment was started when the average tumor size was 212 mm^3. […] Combination with LDC produced 12% transient weight loss in the first week and 13.6% transient weight loss in the second week.
Tumor implantation was carried out during the depletion regimen. […] Extra mice in each group were sacrificed at the time of initiation of treatment in order to verify immune cell depletion. […] The positive control included 2 groups of 6 mice each (one group received indomethacin), with 10/12 CRs/regressions (6/6 regressions without indomethacin and 4/6 regressions with added indomethacin). […] Thus, in addition to immune activation associated with innate and adaptive immune cells, LPS provides a key bridging activity between the innate and adaptive immune systems.

As for rituximab, in [1], the “single agent anti-tumor activity” value is given as “inhibited or delayed”.

For lipopolysaccharide [LPS], in [2], the “GM-CSF secretion by human PBMCs” value is given as 175 pg/mL, the “IFNγ secretion by human PBMCs” value was 29,416 pg/mL, the “IL-1β secretion by human PBMCs” value is reported as 4,631 pg/mL and the “IL-6 secretion by human PBMCs” value is given as 54,174 pg/mL. In series [2], the “IL-8 secretion by human PBMCs” value was 143,459 pg/mL, the “IL-10 secretion by human PBMCs” value is recorded as 3,542 pg/mL, the “IL-12p70 secretion by human PBMCs” value is reported as 109 pg/mL and the “TNFα secretion by human PBMCs” value is on record as 24,944 pg/mL. Moreover, the “highest dose determined to be well-tolerated after IV administration” value in series [3] is 0.004 µg/kg.

In the case of `Nc1ccn([C@@H]2O[C@H](CO)[C@@H](O)C2(F)F)c(=O)n1` [gemcitabine], the median survival time entry in series [4] is recorded as “significant increase in median survival”. For the same compound, in series [5], the survival result is given as “increased survival”. In addition, in series [6], the “single agent anti-tumor activity” value was “weak, but statistically significant” and the weight loss is reported as 20%.

“Polyinosinic-polycytidylic acid [Poly(I:C)]”: in series [2], the “GM-CSF secretion by human PBMCs” value worked out at 0 pg/mL, the “IFNγ secretion by human PBMCs” value was 103 pg/mL, the “IL-1β secretion by human PBMCs” value came to 22 pg/mL and the “IL-6 secretion by human PBMCs” value worked out at 129 pg/mL. Also, in series [2], the “IL-8 secretion by human PBMCs” value is reported as 1,452 pg/mL, the “IL-10 secretion by human PBMCs” value was 8 pg/mL, the “IL-12p70 secretion by human PBMCs” value is on record as 18 pg/mL and the “TNFα secretion by human PBMCs” value came out at 208 pg/mL.

As for `C=C1[C@H](CO)[C@@H](O)C[C@@H]1n1cnc2c(=O)[nH]c(N)nc21` [ETV, Entecavir], in [7], the “HBV replication (measured in blood)” value is “significantly inhibited HBV replication”. In series [7] (mouse, in vivo), the “HBeAg and HBsAg in blood” value is listed as “not to reduce or inhibit production of HBeAg or HBsAg”; the “inhibition of HBcAg in the liver” value was “not”; the “reduction of HBV in the liver” value was “not”. In addition, in series [8] (Day 31 to Day 151, no indomethacin), the “plasma HBV DNA levels” value is “reduced plasma HBV DNA levels”. Besides, in series [8] (mouse, in vivo), the “HBV DNA and HBeAg levels in mouse liver at termination” value is reported as “not”; the “plasma HBsAg and HBeAg levels” value is “not”.

For the compound `COc1ccc2c(c1)c(CC(=O)O)c(C)n2C(=O)c1ccc(Cl)cc1` [indomethacin], the survival entry in [5] was “did not increase survival significantly”. For the same compound, the “increase in life-span (% ILS)” value in series [9] was 30%. Moreover, the regressions result in series [10] (6 week indomethacin treatment) is “did not see any regressions”. Further, in [10] (indomethacin 2 weeks, indomethacin 2 weeks+anti-PD-1, Decoy QD×2 6 weeks+indomethacin 6 weeks), the “regressions (6 animals per group)” value is “one”. In series [10] (single agents, indomethacin 2 weeks and 6 weeks), the “lifespan (ILS)” value is listed as “statistically significant increase in lifespan”. The Transient weight loss entry in [6] is reported as “not seen”. For the same compound, in series [11] (6 or 24 hours after treatment), the “plasma cytokines/chemokines induced (of 32)” value was 2/32. Also, the “Tumor growth inhibition relative to no treatment” value in [11] (after one week of treatment) was 17%. For the same compound, the “single agent anti-tumor activity” value in series [1] is listed as “did not produce single agent activity”. The “HBV replication (measured in blood)” value in [7] is “did not inhibit HBV replication”. In addition, the “HIV viral load in plasma” value in series [12] is listed as “inhibited HIV viral load”.

As for `O=P1(N(CCCl)CCCl)NCCCO1` (stereo not drawn) [LDC, cyclophosphamide], the “increased lifespan (% ILS)” value in series [13] came to 57%. The “inhibition of tumor growth” value in series [14] is “significant tumor growth inhibition”. The “single agent anti-tumor activity” value in series [6] was “weak, but statistically significant”. In series [15], the “tumor regression (group of 4)” value is reported as “one”. In addition, the regressions entry in series [16] was “without producing any regressions”.
